Data taken from the supplement of paper PMC10307832.

Tests used:
Assay in all cases: relative viability (nuclei count vs DMSO), 5 days (fraction); higher = more cells survive
[1] = test system: HCC-15
Procedure, shortened: (§1)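 Relative viability was taken as the ratio of nuclei in treated wells to nuclei in vehicle wells. Lung cancer cell lines in 1536-well plates received compounds by pin tool one day after seeding, either one drug alone or a fixed anchor-drug dose plus five library-drug doses (not always all listed) in √10 steps. Nuclei were counted on 4× images after 5 days of treatment, and values are medians of duplicate plates.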

[2] = test system: NCI-H441
Procedure, shortened: as §1

[3] = test system: NCI-H358
Procedure, shortened: as §1

[4] = test system: NCI-H1975
Procedure, shortened: as §1

[5] = test system: NCI-H1792
Procedure, shortened: as §1

[6] = test system: NCI-H1666
Procedure, shortened: as §1

[7] = test system: A-427
Procedure, shortened: as §1

[8] = test system: COR-L23
Procedure, shortened: as §1

[9] = test system: LK-2
Procedure, shortened: as §1

[10] = test system: EKVX
Procedure, shortened: as §1

[11] = test system: BEN
Procedure, shortened: as §1

[12] = test system: NCI-H650
Procedure, shortened: as §1

[13] = test system: SK-MES-1
Procedure, shortened: as §1

[14] = test system: HCC-44
Procedure, shortened: as §1

[15] = test system: HCC-827
Procedure, shortened: as §1

[16] = test system: NCI-H23
Procedure, shortened: as §1

[17] = test system: 201T
Procedure, shortened: as §1

[18] = test system: NCI-H596
Procedure, shortened: as §1

[19] = test system: COR-L 105
Procedure, shortened: as §1

[20] = test system: NCI-H1437
Procedure, shortened: as §1

[21] = test system: HARA
Procedure, shortened: as §1

[22] = test system: NCI-H838
Procedure, shortened: as §1

C=C1C(=O)O[C@@H](CCCCCCCC)[C@@H]1C(=O)O [C-75] + Cc1nc(NC(=O)N2CCC[C@H]2C(N)=O)sc1-c1ccnc(C(C)(C)C(F)(F)F)c1 [Alpelisib] (partner 2 µM)
relative viability ([1]; first compound 0.08 µM): 0.891
relative viability ([1]; first compound 0.253 µM): 0.862
relative viability ([1]; first compound 0.8 µM): 0.873
relative viability ([1]; first compound 2.53 µM): 0.641
relative viability ([1]; first compound 8 µM): 0.871
relative viability ([2]; first compound 0.08 µM): 0.762
relative viability ([2]; first compound 0.253 µM): 0.734
relative viability ([2]; first compound 0.8 µM): 0.577
relative viability ([2]; first compound 2.53 µM): 0.589
relative viability ([2]; first compound 8 µM): 0.602
relative viability ([3]; first compound 0.08 µM): 0.851
relative viability ([3]; first compound 0.253 µM): 0.735
relative viability ([3]; first compound 0.8 µM): 0.789
relative viability ([3]; first compound 2.53 µM): 0.859
relative viability ([3]; first compound 8 µM): 0.808
relative viability ([4]; first compound 0.08 µM): 0.657
relative viability ([4]; first compound 0.253 µM): 0.675
relative viability ([4]; first compound 0.8 µM): 0.698
relative viability ([4]; first compound 2.53 µM): 0.61
relative viability ([4]; first compound 8 µM): 0.66
relative viability ([5]; first compound 0.08 µM): 0.67
relative viability ([5]; first compound 0.253 µM): 0.728
relative viability ([5]; first compound 0.8 µM): 0.687
relative viability ([5]; first compound 2.53 µM): 0.581
relative viability ([5]; first compound 8 µM): 0.673
relative viability ([6]; first compound 0.08 µM): 0.908
relative viability ([6]; first compound 0.253 µM): 1.13
relative viability ([6]; first compound 0.8 µM): 0.879
relative viability ([6]; first compound 2.53 µM): 0.987
relative viability ([6]; first compound 8 µM): 0.71
relative viability ([7]; first compound 0.08 µM): 1.06
relative viability ([7]; first compound 0.253 µM): 1.08
relative viability ([7]; first compound 0.8 µM): 1.14
relative viability ([7]; first compound 2.53 µM): 0.95
relative viability ([7]; first compound 8 µM): 1.03
relative viability ([8]; first compound 0.08 µM): 0.762
relative viability ([8]; first compound 0.253 µM): 1.02
relative viability ([8]; first compound 0.8 µM): 0.753
relative viability ([8]; first compound 2.53 µM): 0.741
relative viability ([8]; first compound 8 µM): 0.723
relative viability ([9]; first compound 0.08 µM): 0.921
relative viability ([9]; first compound 0.253 µM): 0.771
relative viability ([9]; first compound 0.8 µM): 1.13
relative viability ([9]; first compound 2.53 µM): 1.28
relative viability ([9]; first compound 8 µM): 1
relative viability ([10]; first compound 0.08 µM): 0.885
relative viability ([10]; first compound 0.253 µM): 0.863
relative viability ([10]; first compound 0.8 µM): 0.913
relative viability ([10]; first compound 2.53 µM): 0.583
relative viability ([10]; first compound 8 µM): 0.969
relative viability ([11]; first compound 0.08 µM): 0.983
relative viability ([11]; first compound 0.253 µM): 1.15
relative viability ([11]; first compound 0.8 µM): 0.953
relative viability ([11]; first compound 2.53 µM): 0.926
relative viability ([11]; first compound 8 µM): 0.91
relative viability ([12]; first compound 0.08 µM): 1.1
relative viability ([12]; first compound 0.253 µM): 0.874
relative viability ([12]; first compound 0.8 µM): 1.08
relative viability ([12]; first compound 2.53 µM): 1.06
relative viability ([12]; first compound 8 µM): 1.04
relative viability ([13]; first compound 0.08 µM): 1.1
relative viability ([13]; first compound 0.253 µM): 0.876
relative viability ([13]; first compound 0.8 µM): 0.902
relative viability ([13]; first compound 2.53 µM): 0.864
relative viability ([13]; first compound 8 µM): 0.792
relative viability ([14]; first compound 0.08 µM): 0.742
relative viability ([14]; first compound 0.253 µM): 0.674
relative viability ([14]; first compound 0.8 µM): 0.719
relative viability ([14]; first compound 2.53 µM): 0.614
relative viability ([14]; first compound 8 µM): 0.719
relative viability ([15]; first compound 0.08 µM): 0.936
relative viability ([15]; first compound 0.253 µM): 0.97
relative viability ([15]; first compound 0.8 µM): 0.953
relative viability ([15]; first compound 2.53 µM): 1.01
relative viability ([15]; first compound 8 µM): 0.987
relative viability ([16]; first compound 0.08 µM): 0.546
relative viability ([16]; first compound 0.253 µM): 0.818
relative viability ([16]; first compound 0.8 µM): 0.565
relative viability ([16]; first compound 2.53 µM): 0.618
relative viability ([16]; first compound 8 µM): 0.505
relative viability ([17]; first compound 0.08 µM): 0.981
relative viability ([17]; first compound 0.253 µM): 1.08
relative viability ([17]; first compound 0.8 µM): 1.02
relative viability ([17]; first compound 2.53 µM): 0.975
relative viability ([17]; first compound 8 µM): 1.07
relative viability ([18]; first compound 0.08 µM): 0.51
relative viability ([18]; first compound 0.253 µM): 0.663
relative viability ([18]; first compound 0.8 µM): 0.476
relative viability ([18]; first compound 2.53 µM): 0.525
relative viability ([18]; first compound 8 µM): 0.54
relative viability ([19]; first compound 0.08 µM): 1.15
relative viability ([19]; first compound 0.253 µM): 1.1
relative viability ([19]; first compound 0.8 µM): 1.06
relative viability ([19]; first compound 2.53 µM): 0.895
relative viability ([19]; first compound 8 µM): 0.668
relative viability ([20]; first compound 0.08 µM): 0.942
relative viability ([20]; first compound 0.253 µM): 0.969
relative viability ([20]; first compound 0.8 µM): 1.01
relative viability ([20]; first compound 2.53 µM): 0.961
relative viability ([20]; first compound 8 µM): 1.07
relative viability ([21]; first compound 0.08 µM): 0.849
relative viability ([21]; first compound 0.253 µM): 1
relative viability ([21]; first compound 0.8 µM): 0.767
relative viability ([21]; first compound 8 µM): 0.883
relative viability ([22]; first compound 0.08 µM): 0.949
relative viability ([22]; first compound 0.253 µM): 0.675
relative viability ([22]; first compound 0.8 µM): 0.928
relative viability ([22]; first compound 2.53 µM): 0.79
relative viability ([22]; first compound 8 µM): 0.919
